Laboratory results taken from patent US7851637B2, “Compounds and methods for inhibiting the interaction of BCL proteins with binding partners” (Infinity Pharmaceuticals, Inc., priority 2004, dated 2010).
Where two headings read alike, the source gives them in different places.

Tests used:
Bcl-2 = Bcl-2 (Homo sapiens, UniProt P10415); assay: Bcl-2 binding affinity analysis (fluorescence polarization binding assay)
Method in brief: (§1)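 In vitro measurement of compound binding to each protein by fluorescence polarization, described as sensitive and quantitative.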

Bcl-xL = Bcl-xL (Homo sapiens, UniProt Q07817); assay: Bcl-xL binding affinity analysis (fluorescence polarization binding assay); set-up: scale not given here
Method in brief: as §1

[1] = tested on: RL Human Follicular Lymphoma Cell Line; assay: Alamar blue cytotoxicity assay in RL cells; type: cell-based; conditions: Homo sapiens, 72 h incubation, read-out: Bcl RL Alamar Blue IC50
Method in brief: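 Compounds tested at 29 uM to 0.013 uM final (0.3% DMSO) on 30,000 RL cells per well. After 72 h at 37 C, 5% CO2, viability read with Alamar blue.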

[2] = tested on: Human Pancreatic Cancer Cell Line Panc1; assay: Cell death assay (propidium iodide/Hoechst) in Panc1 cells with or without camptothecin; type: cell-based; conditions: 72 hours, % cell death by propidium iodide/Hoechst
Method in brief: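 Panc1 cells, 10,000/well, exposed 72 h at 37 C to compound (29 uM to 0.13 uM, 0.3% DMSO) with or without 3 uM camptothecin. Propidium iodide and Hoechst staining imaged by fluorescence microscopy; % cell death = PI-stained/Hoechst-stained cells × 100.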

[3] = Homo sapiens, PANC-1, without camptothecin, read-out: Panc1 − Cpt IC50
[4] = with 3 uM Camptothecin, read-out: Panc1 + Cpt IC50

Bcl-xL, sequence (Q07817 whole entry): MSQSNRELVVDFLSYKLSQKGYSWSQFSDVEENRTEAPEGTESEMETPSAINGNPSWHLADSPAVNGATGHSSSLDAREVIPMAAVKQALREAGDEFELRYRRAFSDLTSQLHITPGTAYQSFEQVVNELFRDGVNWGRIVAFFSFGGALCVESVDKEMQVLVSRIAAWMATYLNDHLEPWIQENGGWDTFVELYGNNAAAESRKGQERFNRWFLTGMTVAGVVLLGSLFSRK
Bcl-2, sequence (P10415 whole entry): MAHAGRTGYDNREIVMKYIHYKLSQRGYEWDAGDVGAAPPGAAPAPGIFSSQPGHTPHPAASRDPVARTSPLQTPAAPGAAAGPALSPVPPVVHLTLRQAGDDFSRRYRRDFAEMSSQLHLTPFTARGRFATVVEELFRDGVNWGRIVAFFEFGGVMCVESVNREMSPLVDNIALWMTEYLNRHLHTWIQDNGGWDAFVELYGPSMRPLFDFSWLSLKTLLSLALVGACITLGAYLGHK

SMILES	Ki (Bcl-2)	Bcl-XL binding affinity Ki (Bcl-xL)	IC50 [1]	IC50 [2, 3]	IC50 [2, 4]	IC50 ([2]; without camptothecin, read-out: Panc1 − Cpt IC50)
CC(O)C1C(CO)ON(Cc2cccc(CN(CCN(C)C)Cc3ccoc3)c2)C1C(=O)NC1CC2CC(C1C)C2(C)C (stereo not drawn) [Compound 392]	< 800 nM	♯	> 5000 nM	> 2500 nM	> 2500 nM	–
CC(O)C1C(CO)ON(Cc2cccc(CN(CCN(C)C)Cc3cccnc3)c2)C1C(=O)NC1CC2CC(C1C)C2(C)C (stereo not drawn) [Compound 393]	< 800 nM	♯	> 5000 nM	> 2500 nM	> 2500 nM	–
CC(O)C1C(CO)ON(Cc2cccc(CN(CCN(C)C)Cc3ccccc3I)c2)C1C(=O)NC1CC2CC(C1C)C2(C)C (stereo not drawn) [Compound 394]	< 800 nM	♯	< 2000 nM	> 2500 nM	> 2500 nM	–
CC(O)C1C(CO)ON(Cc2cccc(CN(CCN(C)C)Cc3nccs3)c2)C1C(=O)NC1CC2CC(C1C)C2(C)C (stereo not drawn) [Compound 395]	< 800 nM	♯	> 5000 nM	> 2500 nM	> 2500 nM	–
CC(O)C1C(CO)ON(Cc2cccc(CN(CCN(C)C)Cc3ccc([N+](=O)[O-])cc3)c2)C1C(=O)NC1CC2CC(C1C)C2(C)C (stereo not drawn) [Compound 396]	< 800 nM	♯	> 5000 nM	> 2500 nM	> 2500 nM	–
Cc1cccc(CN(CCN(C)C)Cc2cccc(CN3OC(CO)C(C(C)O)C3C(=O)NC3CC4CC(C3C)C4(C)C)c2)c1 (stereo not drawn) [Compound 399]	< 800 nM	♯	2000 to 5000 nM	> 2500 nM	> 2500 nM	–
CC(O)C1C(CO)ON(Cc2cccc(CN(CCN(C)C)Cc3cccc(-c4ccccc4)c3)c2)C1C(=O)NC1CC2CC(C1C)C2(C)C (stereo not drawn) [Compound 402]	< 800 nM	♯	< 2000 nM	> 2500 nM	> 2500 nM	–
CC(O)C1C(CO)ON(Cc2cccc(CN(CCN(C)C)Cc3c(F)cccc3C(F)(F)F)c2)C1C(=O)NC1CC2CC(C1C)C2(C)C (stereo not drawn) [Compound 412]	< 800 nM	♯	< 2000 nM	> 2500 nM	1300 to 1800 nM	–
CC(O)C1C(CO)ON(Cc2cccc(CN(CCN(C)C)Cc3ccccn3)c2)C1C(=O)NC1CC2CC(C1C)C2(C)C (stereo not drawn) [Compound 413]	< 800 nM	♯	> 5000 nM	> 2500 nM	> 2500 nM	–
CC(O)C1C(CO)ON(Cc2cccc(CN(Cc3ccccc3)C(CN(C)C)CC(C)(C)C)c2)C1C(=O)NC1CC2CC(C1C)C2(C)C (stereo not drawn) [Compound 414]	< 800 nM	♯	2000 to 5000 nM	> 2500 nM	1800 to 2500 nM	–
CC(C)C(CN(C)C)N(Cc1ccccc1)Cc1cccc(CN2OC(CO)C(C(C)O)C2C(=O)NC2CC3CC(C2C)C3(C)C)c1 (stereo not drawn) [Compound 415]	< 800 nM	♯	2000 to 5000 nM	> 2500 nM	> 2500 nM	–
CC(O)C1C(CO)ON(Cc2cccc(CN(Cc3ccccc3)C(CN(C)C)c3ccccc3)c2)C1C(=O)NC1CC2CC(C1C)C2(C)C (stereo not drawn) [Compound 418]	< 800 nM	♯	2000 to 5000 nM	1800 to 2500 nM	1800 to 2500 nM	–
CCN1CCC[C@H]1CN(Cc1ccccc1)Cc1cccc(CN2O[C@@H](CO)C([C@H](C)O)[C@H]2C(=O)N[C@H]2C[C@H]3C[C@@H]([C@@H]2C)C3(C)C)c1 (stereo partly drawn) [Compound 424]	< 800 nM	♯	< 2000 nM	> 2500 nM	1800 to 2500 nM	–
CC(O)C1C(CO)ON(Cc2cccc(CN(CCN3CCCC3)CC3CCCCC3)c2)C1C(=O)NC1CC2CC(C1C)C2(C)C (stereo not drawn) [Compound 425]	< 800 nM	♯	< 2000 nM	> 2500 nM	> 2500 nM	–
CCN(CC)CCN(Cc1ccccc1)Cc1cccc(CN2OC(CO)C(C(C)O)C2C(=O)NC2CC3CC(C2C)C3(C)C)c1 (stereo not drawn) [Compound 428]	< 800 nM	♯	> 5000 nM	> 2500 nM	> 2500 nM	–
CC(O)C1C(CO)ON(Cc2cccc(CN(Cc3ccccc3)C(C)CN(C)C)c2)C1C(=O)NC1CC2CC(C1C)C2(C)C (stereo not drawn) [Compound 431]	< 800 nM	♯	> 5000 nM	> 2500 nM	> 2500 nM	–
CC(C)CC(CN(C)C)N(Cc1ccccc1)Cc1cccc(CN2OC(CO)C(C(C)O)C2C(=O)NC2CC3CC(C2C)C3(C)C)c1 (stereo not drawn) [Compound 435]	< 800 nM	♯	2000 to 5000 nM	–	> 2500 nM	> 2500 nM
CC(O)C1C(CO)ON(Cc2cccc(CN(C)C(CC3CCCCC3)CN(C)C)c2)C1C(=O)NC1CC2CC(C1C)C2(C)C (stereo not drawn) [Compound 442]	< 800 nM	♯	2000 to 5000 nM	> 2500 nM	> 2500 nM	–
CC(O)C1C(CO)ON(Cc2cccc(CNC(CC3CCCCC3)CN(C)C)c2)C1C(=O)NC1CC2CC(C1C)C2(C)C (stereo not drawn) [Compound 444]	< 800 nM	♯	2000 to 5000 nM	> 2500 nM	> 2500 nM	–
CC(O)C1C(CO)ON(Cc2cccc(CN3Cc4ccccc4C3CN(C)C)c2)C1C(=O)NC1CC2CC(C1C)C2(C)C (stereo not drawn) [Compound 470]	< 800 nM	♯	> 5000 nM	> 2500 nM	> 2500 nM	–
CC(O)C1C(CO)ON(Cc2cccc(CN(CC(=O)N(C)C)Cc3ccccc3)c2)C1C(=O)NC1CC2CC(C1C)C2(C)C (stereo not drawn) [Compound 471]	< 800 nM	♯	> 5000 nM	> 2500 nM	> 2500 nM	–
CC(O)C1C(CO)ON(Cc2cccc(CNC(CC3CCCCCC3)CN(C)C)c2)C1C(=O)NC1CC2CC(C1C)C2(C)C (stereo not drawn) [Compound 472]	< 800 nM	♯	2000 to 5000 nM	> 2500 nM	> 2500 nM	–
COc1c(CN2O[C@@H](CO)[C@@H]([C@H](C)O)[C@H]2C(=O)N[C@H]2C[C@H]3C[C@@H]([C@@H]2C)C3(C)C)cccc1-c1cccc(C(=O)N[C@H](CN(C)C)C2CCCCC2)c1 [Compound 480]	< 800 nM	♯	2000 to 5000 nM	> 2500 nM	1300 to 1800 nM	–
COc1c(CN2O[C@@H](CO)[C@@H]([C@H](C)O)[C@H]2C(=O)N[C@H]2C[C@H]3C[C@@H]([C@@H]2C)C3(C)C)cccc1-c1cccc(C(=O)N[C@H](CC(C)C)CN2CCCCCC2)c1 [Compound 483]	< 800 nM	♯	2000 to 5000 nM	> 2500 nM	1800 to 2500 nM	–
COc1c(CN2O[C@@H](CO)[C@@H]([C@H](C)O)[C@H]2C(=O)N[C@H]2C[C@H]3C[C@@H]([C@@H]2C)C3(C)C)cccc1-c1cccc(C(=O)N[C@@H](CN(C)C)C(C)C)c1 [Compound 484]	< 800 nM	♯	2000 to 5000 nM	> 2500 nM	> 2500 nM	–
COc1c(CN2O[C@@H](CO)[C@@H]([C@H](C)O)[C@H]2C(=O)N[C@H]2C[C@H]3C[C@@H]([C@@H]2C)C3(C)C)cccc1-c1cccc(C(=O)N[C@H](Cc2ccccc2)CN(C)C)c1 [Compound 486]	< 800 nM	♯	2000 to 5000 nM	> 2500 nM	> 2500 nM	–
COc1c(CN2O[C@@H](CO)[C@@H]([C@H](C)O)[C@H]2C(=O)N[C@H]2C[C@H]3C[C@@H]([C@@H]2C)C3(C)C)cccc1-c1cccc(C(=O)N[C@@H](CC2CCCCC2)CN(C)C)c1 [Compound 487]	< 800 nM	♯	2000 to 5000 nM	> 2500 nM	> 2500 nM	–
COc1c(CN2O[C@@H](CO)[C@@H]([C@H](C)O)[C@H]2C(=O)N[C@H]2C[C@H]3C[C@@H]([C@@H]2C)C3(C)C)cccc1-c1cccc(C(=O)N[C@H](CN(C)C)C(C)C)c1 [Compound 488]	< 800 nM	♯	2000 to 5000 nM	> 2500 nM	> 2500 nM	–
CC(O)C1C(CO)ON(Cc2cccc(C(=O)NC(CCc3ccccc3)CN(C)C)c2)C1C(=O)NC1CC2CC(C1C)C2(C)C (stereo not drawn) [Compound 498]	< 800 nM	♯	> 5000 nM	> 2500 nM	> 2500 nM	–
CC(C)CC(CN(C)C)NC(=O)c1cccc(CN2OC(CO)C(C(C)O)C2C(=O)NC2CC3CC(C2C)C3(C)C)c1 (stereo not drawn) [Compound 505]	< 800 nM	♯	> 5000 nM	> 2500 nM	> 2500 nM	–
